Converted amounts (≈) assume the structure as drawn.
What was measured:
[1] = system: S. aureus mgrA mutant (mgrA-) strain; assay: MIC measurement, susceptibility of mgrA mutant strain to fluoroquinolones and vancomycin; assay type: cell-based; details: Staphylococcus aureus
Experimental: (§1) S. aureus cells were serially diluted and an equal number of cells was spotted on a plate containing various concentrations of antibiotics. The S. aureus strain Newman (wild-type) and the mutant strains mgrA- and mgrH1- (knock outs) were tested.

[2] = system: S. aureus strain Newman (wild-type); assay: MIC measurement, susceptibility of wild-type strain to fluoroquinolones and vancomycin; assay type: cell-based; details: Staphylococcus aureus
Experimental: as §1

[3] = biological target: T1, MgrA (Staphylococcus aureus, UniProt Q99VT5); assay: Alkylation of Cys12 in MgrA, DTNB assay for free thiol content; assay type: biochemical, S. aureus; design: His6 (N, cleaved yes); made in house; host or cells: E. coli BL21(DE3); details: 8 equivalents alkylator, 0.05 mM MgrA in water, pH 7.4, 1 h, r.t.
T1 sequence (Q99VT5 1-147): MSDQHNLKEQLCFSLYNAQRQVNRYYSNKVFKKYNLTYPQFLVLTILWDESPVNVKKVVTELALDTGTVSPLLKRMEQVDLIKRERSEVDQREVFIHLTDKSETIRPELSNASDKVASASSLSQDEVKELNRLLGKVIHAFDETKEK
Experimental: Alkylation of Cys12 in MgrA in vitro and in vivo. In a study to test potential alkylation of Cys12 in MgrA, the inventors examined several alkylators (1-7, Table 3). Eight equivalents of alkylators were used to react with 0.05 mM MgrA in water for 1 h at pH 7.4 at room temperature. Alkylation of Cys12 was determined by DTNB assay for free thiol content. […] Over 95% of cysteine thiols were alkylated by compound 7 after 1 h of reaction.

[4] = system: S. aureus Newman strain; assay: Antibiotic sensitivity assay of S. aureus under oxidative stress or alkylator treatment; assay type: cell-based, Staphylococcus aureus
Experimental: The change of susceptibility levels of S. aureus strains toward ciprofloxacin and vancomycin under oxidative stress. The antibiotic resistance levels were tested in the absence (−H2O2) or presence (+H2O2) of 100 μM H2O2 by a plate sensitivity assay (FIG. 7A) and were also determined in the absence (−PQ) or presence (+PQ) of 25 μM paraquat by a 96-well-plate sensitivity assay (FIG. 7B). […] Empty bars are non-treated cultures. Results are mean ±s.d. from three independent experiments performed in duplicate.
Five strains were used to test oxidation responses in vivo: the wild-type Newman, the mgrA- mutant (knock out), the mgrA- mutant complemented with mgrA cloned in a plasmid pYJ335, the mgrA- mutant complemented with mgrAC12S in pYJ335, and the control mutant strain with pYJ335.
The susceptibility levels of all five strains toward CIP and VCM were also evaluated in the absence and presence of paraquat (PQ), another reagent known to cause oxidative stress in vivo (FIG. 7B).

[5] = system: norA gene; assay: qRT-PCR of norA gene activation; assay type: cell-based, S. aureus; details: Newman strain
Experimental: Lanes 1 and 2, purified MgrA (2 μM) with a 40 bp oligonucleotide (0.4 pmol) containing the MgrA binding sequence on the sarV promoter region; lanes 3 and 4, MgrA was treated with 100 equivalents of phenyl vinyl sulfone (7) for 30 min (lane 3) or 60 min (lane 4) before mixed with DNA and applied for the shift assay. FIGS. 13A-B: The Cys-alkylator phenyl vinyl sulfone (PVS) has similar effects on MgrA as hydrogen peroxide. (FIG. 13A) Treatment of the Newman strain with PVS turned on resistance of the pathogen towards vancomycin. (FIG. 13B) The norA gene is repressed by MgrA; however, treatment of the Newman strain with either H2O2 or PVS can turn on this gene.
Activation of MgrA by phenyl vinyl sulfone (PVS) inside S. aureus was tested. […] To further confirm the effect of PVS, the inventors monitored activation of the norA gene known to be repressed by MgrA. […] The next challenge is to develop vinyl sulfones that have high affinity and specificity toward MgrA. Of course, a non-covalent modulator that can activate MgrA with high sensitivity and specificity via direct binding is also highly desirable.

[6] = biological target: T1, MgrA; details: 4 equiv oxidant, 10 min, r.t.
[7] = biological target: T2, SarA (Staphylococcus aureus, UniProt P0C1U6); assay: Oxidation of Cys9 in SarA by oxidants; assay type: biochemical, S. aureus; details: 100 equiv oxidant, 30 min, r.t.
T2 construct: made in house
T2 sequence (P0C1U6 1-124): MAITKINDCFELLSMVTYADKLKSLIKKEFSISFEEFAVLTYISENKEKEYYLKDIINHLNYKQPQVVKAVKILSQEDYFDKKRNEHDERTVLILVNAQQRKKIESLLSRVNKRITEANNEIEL
Source text: SarA may adopt an oxidation sensing mechanism similar to MgrA. Cys9 in SarA might be oxidized by ROS or other reactive species which could lead to its dissociation from DNA and activation of the sarA regulon. To test this hypothesis, they cloned, expressed, and purified SarA.

[8] = system: splB gene; details: Newman strain, 0.4 mM, 30 min, qRT-PCR
Source text: (FIG. 10C) Monitoring in vivo effects of SarA oxidation by qRT-PCR.
The inventors also monitored activation of a virulence gene splB in S. aureus.

[9] = biological target: T3, MgrH1 (Staphylococcus aureus, UniProt Q2FVN3); details: 4 equiv oxidant, 10 min, r.t.
T3 sequence (Q2FVN3 1-148): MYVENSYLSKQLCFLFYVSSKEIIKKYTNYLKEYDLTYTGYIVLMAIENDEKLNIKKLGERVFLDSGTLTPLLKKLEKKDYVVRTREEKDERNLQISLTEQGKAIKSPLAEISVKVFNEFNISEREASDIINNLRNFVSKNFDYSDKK

[10] = biological target: T1, MgrA; assay: Binding assays of MgrA with antibiotics; design: His6 (N, cleaved yes); made in house; host or cells: E. coli BL21(DE3); species or system S. aureus
Source text: The regulation mechanism of MgrA. […] The inventors were very intrigued by what they had learned about MgrA: • i) MgrA is a DNA binding protein based on its structure and gel shift experiments. • ii) MgrA regulates S. aureus responses to fluoroquinolones (CIP and NOR, FIG. 1), vancomycin, and oxacillin (data not shown). […] Therefore, MgrA must sense some other host or environmental signals. The mechanistic issue for MgrA frustrated the inventors after they obtained the first crystal structure of this protein. Numerous binding assays were peformed to test a variety of hypotheses. A breakthrough came from a careful inspection of the MgrA structure and its sequence, when it was noticed that there is only one Cys residue present in the entire MgrA sequence, at position 12. This Cys residue, located in the N-terminal α1, is precisely in the dimerization domain (FIG. 4A) and seems to play an important role in orienting the MgrA dimer conformation. Each monomer presents its Cys12 to be recognized through hydrogen bonding to Ser113 and Tyr38 from the other monomer (FIG. 4B).

## O=C(O)c1cn(C2CC2)c2cc(N3CCNCC3)c(F)cc2c1=O [CIP, ciprofloxacin]
[1]
  MIC: 0.7 µg/mL (≈ 2.11 µM)
[2]
  MIC: 0.35 µg/mL (≈ 1.06 µM)

## CCOC(=O)CI [Compound 2]
[3]
  Alkylation percentage (Cys12 of MgrA): >95%

## O=C(CI)c1ccccc1 [Compound 3]
[3]
  Alkylation percentage (Cys12 of MgrA): >95%

## O=C1C=CC(=O)N1 [Compound 4]
[3]
  Alkylation percentage (Cys12 of MgrA): >95%

## c1ccc(OCC2CO2)cc1 (centres unmarked) [Compound 5]
[3]
  Alkylation percentage (Cys12 of MgrA): 48%

## c1ccc(CC2CO2)cc1 (centres unmarked) [Compound 6]
[3]
  Alkylation percentage (Cys12 of MgrA): 59%

## C=CS(=O)(=O)c1ccccc1 [Compound 7, phenyl vinyl sulfone]
[4]; 25 μM PVS, Newman strain
  Change of resistance to vancomycin: enhanced resistance to vancomycin
[5]
  Activation of norA gene: activated norA as efficient as H2O2

## OO [Compound H2O2, hydrogen peroxide]
[4]; 100 μM H2O2, Newman strain, plate sensitivity assay
  Change of resistance toward CIP and VCM: increased resistance
[6]
  Oxidation of MgrA (Cys12): 4 equiv, 10 min, 65%
[7]
  Oxidation of SarA (Cys9): 15% oxidation at r.t.
[8]
  Activation of splB gene: activated
[9]
  Oxidation of MgrH1 (Cys13): 4 equiv, 10 min, 71%

## CCn1cc(C(=O)O)c(=O)c2cc(F)c(N3CCNCC3)cc21 [NOR, norfloxacin]
[1]
  MIC: 1.4 µg/mL (≈ 4.38 µM)
[2]
  MIC: 0.7 µg/mL (≈ 2.19 µM)

## C[n+]1ccc(-c2cc[n+](C)cc2)cc1 [PQ, paraquat]
[4]; 25 μM paraquat, Newman strain, 96-well-plate sensitivity assay
  Change of resistance toward CIP and VCM: increased antibiotic resistance

## CN[C@H](CC(C)C)C(=O)N[C@H]1C(=O)N[C@@H](CC(N)=O)C(=O)N[C@H]2C(=O)N[C@H]3C(=O)N[C@H](C(=O)N[C@H](C(=O)O)c4cc(O)cc(O)c4-c4cc3ccc4O)[C@H](O)c3ccc(c(Cl)c3)Oc3cc2cc(c3O[C@@H]2O[C@H](CO)[C@@H](O)[C@H](O)[C@H]2O[C@H]2C[C@](C)(N)[C@H](O)[C@H](C)O2)Oc2ccc(cc2Cl)[C@H]1O [VCM, vancomycin]
[1]
  MIC: 2.4 µg/mL (≈ 1.66 µM)
[2]
  MIC: 1.2 µg/mL (≈ 0.828 µM)
[10]
  Binding to MgrA: does not bind
